# Values quoted from earlier work as cited in patent publication US20090325943A1, “VETERINARY PHARMACEUTICAL COMPOSITIONS FOR THE TREATMENT OF PAIN AND INFLAMMATION” (priority 2006, published 2009).
# How the values were obtained:
# [1] = dog, regardless of the administration route
structure (smiles),measurement,setting,value
COc1cccc(C2(O)CCCCC2CN(C)C)c1 (stereo not shown) [tramadol],bond with the plasma proteins,6 animal species,modest
same,peak plasma concentration (time to peak),6 animal species,≤ 2 h
same,absorption,administered by the i.m. route,almost total
same,half-life (elimination mainly by the renal route),[1],approx. 2.5 hours
